Target: Recombinant human JAK3 enzyme (JAK3 kinase region; Ala795-Ser1124) (Homo sapiens, UniProt P52333)
Experiment: JAK3 Kinase Assay (Kinase-Glo luminescent, ATP consumption)
Settings: read-out: Inhibition rate (%) of JAK3 kinase activity

Recombinant human JAK3 enzyme (JAK3 kinase region; Ala795-Ser1124), sequence (P52333 795-1124): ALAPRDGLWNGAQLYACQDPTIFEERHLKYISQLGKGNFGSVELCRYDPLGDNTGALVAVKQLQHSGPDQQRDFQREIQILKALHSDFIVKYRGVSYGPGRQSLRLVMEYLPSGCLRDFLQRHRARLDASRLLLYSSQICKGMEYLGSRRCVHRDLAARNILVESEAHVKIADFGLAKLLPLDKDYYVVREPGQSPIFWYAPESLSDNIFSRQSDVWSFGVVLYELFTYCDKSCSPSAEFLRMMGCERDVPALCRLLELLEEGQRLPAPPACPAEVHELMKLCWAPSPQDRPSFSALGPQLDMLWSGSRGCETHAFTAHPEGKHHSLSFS

| inhibition at 0.1 µM [%] | SMILES |
| --- | --- |
| 72 | CN1CCC(Oc2ccc(Nc3cc(NCc4ccccc4)c(C(N)=O)cn3)cc2)CC1 [Example 52, 4-(benzylamino)-6-({4-[(1-methylpiperidin-4-yl)oxy]phenyl}amino)pyridine-3-carboxyamide] |
| 89 | NC(=O)c1cnc(Nc2ccc(N3CCC(CCO)CC3)cc2)cc1NCc1ccccc1 [Example 57, 4-(benzylamino)-6-({4-[4-(2-hydroxyethyl)piperidino]phenyl}amino)pyridine-3-carboxyamide] |
| 76 | CCN(CC)CCC1CCN(c2ccc(Nc3cc(NCc4ccccc4)c(C(N)=O)cn3)cc2)CC1 [Example 59, 4-(benzylamino)-6-[(4-{4-[2-(diethylamino)ethyl]piperidino}phenyl)amino]pyridine-3-carboxyamide] |
| 65 | N#CCCC1CCN(c2ccc(Nc3cc(NCc4ccccc4)c(C(N)=O)cn3)cc2)CC1 [Example 60, 4-(benzylamino)-6-({4-[4-(2-cyanoethyl)piperidino]phenyl}amino)pyridine-3-carboxyamide] |
| 79 | NC(=O)c1cnc(Nc2ccc(N)cc2)cc1NCc1ccccc1 [Example 65, 6-[(4-aminophenyl)amino]-4-(benzylamino) pyridine-3-carboxyamide] |
| 75 | NC(=O)c1cnc(Nc2ccc(NCCN3CCOCC3)cc2)cc1NCc1ccccc1 [Example 70, 4-(benzylamino)-6-({4-[(2-morpholinoethyl)amino]phenyl}amino)pyridine-3-carboxyamide] |
| 70 | CN(CCN1CCOCC1)c1ccc(Nc2cc(NCc3ccccc3)c(C(N)=O)cn2)cc1 [Example 71, 4-(benzylamino)-6-({4-[methyl(2-morpholinoethyl)amino]phenyl}amino)pyridine-3-carboxyamide] |
| 65 | NC(=O)c1cnc(Nc2ccc(N3CCOCC3)cc2)cc1NCc1ccccc1 [Example 72, 4-(benzylamino)-6-{(4-morpholinophenyl)amino]pyridine-3-carboxyamide] |
| 56 | COc1ccccc1CNc1cc(Nc2ccc(N3CCOCC3)cc2)ncc1C(N)=O [Example 73, 4-[(2-methoxybenzyl)amino]-6-[(4-morpholinophenyl)amino]pyridine-3-carboxyamide] |
| 63 | Cc1ccccc1CNc1cc(Nc2ccc(N3CCOCC3)cc2)ncc1C(N)=O [Example 76, 4-[(2-methylbenzyl)amino]-6-[(4-morpholinophenyl)amino]pyridine-3-carboxyamide] |
| 55 | Cc1cccc(CNc2cc(Nc3ccc(N4CCOCC4)cc3)ncc2C(N)=O)c1 [Example 77, 4-[(3-methylbenzyl)amino]-6-[(4-morpholinophenyl)amino]pyridine-3-carboxyamide] |
| 79 | NC(=O)c1cnc(Nc2ccc(N3CCOCC3)cc2)cc1NCc1ccccc1Cl [Example 80, 4-[(2-chlorobenzyl)amino]-6-[(4-morpholinophenyl)amino]pyridine-3-carboxyamide] |
| 72 | NC(=O)c1cnc(Nc2ccc(N3CCOCC3)cc2)cc1NCc1cccc(Cl)c1 [Example 81, 4-[(3-chlorobenzyl)amino]-6-[(4-morpholinophenyl)amino]pyridine-3-carboxyamide] |
| 77 | NC(=O)c1cnc(Nc2ccc(N3CCOCC3)cc2)cc1NCc1cccc(F)c1F [Example 90, 4-[(2,3-difluorobenzyl)amino]-6-[(4-morpholinophenyl)amino]pyridine-3-carboxyamide] |
| 92 | NC(=O)c1cnc(Nc2ccc(N3CCOCC3)cc2)cc1NCc1cc(F)cc(F)c1 [Example 91, 4-[(3,5-difluorobenzyl)amino]-6-[(4-morpholinophenyl)amino]pyridine-3-carboxyamide] |
| 86 | NC(=O)c1cnc(Nc2ccc(N3CCOCC3)cc2)cc1NCc1cc(F)ccc1F [Example 93, 4-[(2,5-difluorobenzyl)amino]-6-[(4-morpholinophenyl)amino]pyridine-3-carboxyamide] |
| 96 | NC(=O)c1cnc(Nc2ccc(N3CCOCC3)cc2)cc1NCc1c(F)cccc1F [Example 94, 4-[(2,6-difluorobenzyl)amino]-6-[(4-morpholinophenyl)amino]pyridine-3-carboxyamide] |
| 74 | NC(=O)c1cnc(Nc2ccc(N3CCOCC3)cc2)cc1NCc1cc(F)cc(C(F)(F)F)c1 [Example 96, 6-[(4-morpholinophenyl)amino]-4-{[3-fluoro-5-(trifluoromethyl)benzyl]amino}pyridine-3-carboxyamide] |
| 80 | COc1ccc(F)cc1CNc1cc(Nc2ccc(N3CCOCC3)cc2)ncc1C(N)=O [Example 99, 4-[(5-fluoro-2-methoxybenzyl)amino]-6-[(4-morpholinophenyl)amino]pyridine-3-carboxyamide] |

| inhibition at 0.1 µM [%] | SMILES |
| --- | --- |
| 53 | NC(=O)c1cnc(Nc2ccc(N3CCOCC3)cc2)cc1NCc1cccc([N+](=O)[O-])c1 [Example 102, 6-[(4-morpholinophenyl)amino]-4-[(3-nitrobenzyl)amino]pyridine-3-carboxyamide] |
| 70 | NC(=O)c1cccc(CNc2cc(Nc3ccc(N4CCOCC4)cc3)ncc2C(N)=O)c1 [Example 115, 4-[(3-carbamoylbenzyl)amino]-6-[(4-morpholinophenyl)amino]pyridine-3-carboxyamide] |
| 83 | C[C@H]1COCCN1c1ccc(Nc2cc(NCc3ccccc3)c(C(N)=O)cn2)cc1 [Example 134, 4-(benzylamino)-6-({4-[(3S)-3-methylmorpholino]phenyl}amino)pyridine-3-carboxyamide] |
| 80 | C[C@@H]1CN(c2ccc(Nc3cc(NCc4ccccc4)c(C(N)=O)cn3)cc2)C[C@H](C)N1 [Example 136, 4-(benzylamino)-6-({4-[(3R,5S)-3,5-dimethylpiperazin-1-yl]phenyl}amino)pyridine-3-carboxyamide] |
| 62 | C[C@@H]1CN(c2ccc(Nc3cc(NCc4cccc(F)c4F)c(C(N)=O)cn3)cc2)C[C@H](C)N1 [Example 140, 4-[(2,3-difluorobenzyl)amino]-6-({4-[(3R,5S)-3,5-dimethylpiperazin-1-yl]phenyl}amino)pyridine-3-carboxyamide] |
| 83 | C[C@@H]1CN(c2ccc(Nc3cc(NCc4cc(F)cc(F)c4)c(C(N)=O)cn3)cc2)C[C@H](C)N1 [Example 141, 4-[(3,5-difluorobenzyl)amino]-6-({4-[(3R,5S)-3,5-dimethylpiperazin-1-yl]phenyl}amino) pyridine-3-carboxyamide] |
| 66 | C[C@@H]1CN(c2ccc(Nc3cc(NCc4cc(F)ccc4F)c(C(N)=O)cn3)cc2)C[C@H](C)N1 [Example 142, 4-[(2,5-difluorobenzyl)amino]-6-({4-[(3R,5S)-3,5-dimethylpiperazin-1-yl]phenyl}amino) pyridine-3-carboxyamide] |
| 61 | C[C@@H]1CN(c2cccc(Nc3cc(NCc4cc(F)cc(F)c4)c(C(N)=O)cn3)c2)C[C@H](C)N1 [Example 144, 4-[(3,5-difluorobenzyl)amino]-6-({3-[(3R,5S)-3,5-dimethylpiperazin-1-yl]phenyl}amino) pyridine-3-carboxyamide] |
| 63 | CN1CCN(c2ccc(Nc3cc(NCc4ccccc4)c(C(N)=O)cn3)cc2)CC1 [Example 145, 4-(benzylamino)-6-{[4-(4-methylpiperazin-1-yl)phenyl]amino}pyridine-3-carboxyamide] |
| 78 | CC(C)N1CCN(c2ccc(Nc3cc(NCc4ccccc4)c(C(N)=O)cn3)cc2)CC1 [Example 146, 4-(benzylamino)-6-({4-[4-(propan-2-yl)piperazin-1-yl]phenyl}amino)pyridine-3-carboxyamide] |
| 58 | COc1ccccc1CNc1cc(Nc2ccc(N3CCN(C(C)C)CC3)cc2)ncc1C(N)=O [Example 147, 4-[(2-methoxybenzyl)amino]-6-({4-[4-(propan-2-yl)piperazin-1-yl]phenyl}amino)pyridine-3-carboxyamide] |
| 66 | CC(C)N1CCN(c2ccc(Nc3cc(NCc4cccc(F)c4F)c(C(N)=O)cn3)cc2)CC1 [Example 150, 4-[(2,3-difluorobenzyl)amino]-6-({4-[4-(propan-2-yl)piperazin-1-yl]phenyl}amino)pyridine-3-carboxyamide] |
| 69 | CC(C)N1CCN(c2ccc(Nc3cc(NCc4cc(F)cc(F)c4)c(C(N)=O)cn3)cc2)CC1 [Example 151, 4-[(3,5-difluorobenzyl)amino]-6-({4-[4-(propan-2-yl)piperazin-1-yl]phenyl}amino)pyridine-3-carboxyamide] |
| 94 | CC(C)N1CCN(c2ccc(Nc3cc(NCc4c(F)cccc4F)c(C(N)=O)cn3)cc2)CC1 [Example 153, 4-[(2,6-difluorobenzyl)amino]-6-({4-[4-(propan-2-yl)piperazin-1-yl]phenyl}amino)pyridine-3-carboxyamide] |
| 59 | CC(C)N1CCN(c2cccc(Nc3cc(NCc4cc(F)cc(F)c4)c(C(N)=O)cn3)c2)CC1 [Example 155, 4-[(3,5-difluorobenzyl)amino]-6-({3-[4-(propan-2-yl)piperazin-1-yl]phenyl}amino)pyridine-3-carboxyamide] |
| 66 | CS(=O)(=O)Nc1ccc(Nc2cc(NCc3cccc([N+](=O)[O-])c3)c(C(N)=O)cn2)cc1 [Example 160, 4-[(3-nitrobenzyl)amino]-6-({4-[(methylsulfonyl)amino]phenyl}amino)pyridine-3-carboxyamide] |
| 72 | CCCS(=O)(=O)Nc1ccc(Nc2cc(NCc3cc(F)cc(F)c3)c(C(N)=O)cn2)cc1 [Example 162, 4-[(3,5-difluorobenzyl)amino]-6-({4-[(propylsulfonyl)amino]phenyl}amino)pyridine-3-carboxyamide] |
| 77 | CC(C)S(=O)(=O)Nc1ccc(Nc2cc(NCc3ccccc3)c(C(N)=O)cn2)cc1 [Example 163, 4-(benzylamino)-6-({4-[(propan-2-ylsulfonyl)amino]phenyl}amino)pyridine-3-carboxyamide] |

Reference: patent US8575153B2 (Kowa Company, Ltd., priority 2008, dated 2013)
